System: THP-1 cells
Test: Amount of TNF-α released from THP-1 cells
Type: cell-based, human
Conditions: free body, 37° C. for 4 hours, FIG. 8
Description: Human monocyte leukemia-derived THP-1 cells (ATCC) were cultured in an RPMI1640 medium (Invitrogen/GIBCO). To the medium, 10% fetal bovine serum (JRH Bioscience), 1 mM sodium pyruvate (Invitrogen/GIBCO), 100 units/mL penicillin, and 100 μg/mL streptomycin (Invitrogen/GIBCO) were added.
(1) The cultured Jurkat cells, derived from human T-lymphocyte leukemia cells, were recovered (1×10^6/mL), and the thus recovered cells were then centrifuged at 1000 rpm for 10 minutes. (2) After a supernatant had been removed, the residue was washed with PBS (137 mM NaCl, 3 mM KCl, 9 mM NaHPO4, 1.5 mM KH2PO4, pH 7.4). (3) The cells were suspended in 300 μL of Binding buffer ([…] Tris-HCl, 150 mM NaCl, protease inhibitor cocktail, pH 7.5). (4) The cells were disintegrated by an ultrasonic wave treatment, and the disintegration of the cells was then observed under a microscope. […] (6) The protein concentration in the cell extract of the supernatant was measured, and the extract was then diluted with Lysis buffer (137 mM NaCl, 3 mM KCl, 9 mM NaHPO4, 1.5 mM KH2PO4, protease inhibitor cocktail, pH 7.4), resulting in a final protein concentration of 5 mg/mL. […] The amount of TNF-α contained in this supernatant was measured. […] (9) 50 μL of Stop solution was added to the resultant, and the absorption spectrum at 450 nm was then measured. […]

Lipid A
responsiveness in the THP cells (TNF-α release): not so high

From US20100311608A1, “METHOD TO PREPARE MAGNETIC BEADS CONJUGATED WITH SMALL COMPOUNDS” (RIKEN, priority 2009, published 2010)
